Measured values reported in publication PMC13205134, “Design, synthesis, and biological properties exhibited by 1,2,3-triazole based Grp94-selective inhibitors” (European journal of medicinal chemistry, 2025).
Values joined by “and” are separate entries in the source; they are usually repeats but may differ in a detail not shown here. Equal values may be shown once. “Also recorded” adds a separate entry of the source.

Assays:
Akt = assay: Western blot of Akt in MDA-MB-231 cells; assay type: cell-based; details: 24 h
Description: (§1) MDA-MB-231 cells were grown in a water jacketed incubator at 37 °C with 5 % CO2. Cells were cultured in DMEM (Corning) media supplemented with 10 % heat-inactivated fetal bovine serum (FBS, Gibco, 10438-026) and 1 % Penicillin-Streptomycin (VWR, K952-100 mL). Cells were seeded in clear, flat bottom 6-well plates with each well containing 500,000 cells and grown to 80 % confluency. The medium was replaced with fresh DMEM that contains compounds of interest at the indicated concentrations or vehicle control, and cells were incubated for 24 h. Following treatment, MDA-MB-231 cells were then lysed in RIPA buffer supplemented with protease and phosphatase inhibitors. Protein concentration in lysates were determined by BCA assay (Thermo). Equal amounts of protein were separated by SDS-PAGE on 10 % polyacrylamide gels and […] onto nitrocellulose membranes. Transfer efficiency and total protein loading were confirmed by Ponceau staining. Membranes were blocked with 6 % nonfat dry milk and probed with primary antibodies against GAPDH (Cell Signaling, 14C10), Hsp70 (Cell Signaling, C92F3A), Akt, and Integrin α2 (Cell Signaling, D8V7H) each diluted 1:1000. Secondary antibodies were also used at 1:1000 (Southern Biotech), immunoblots were developed using ECL substrate (Amersham, 45-000-999) and visualized on a ChemiDoc Imaging System (BioRad).

Y437H myocilin = assay: Cellular assay for mutant myocilin in dox-inducible trabecular meshwork (TM-1) cells; assay type: cell-based, human
Description: (§2) Immortalized human trabecular meshwork (TM-1) cells stably transduced with WT or Y437H myocilin (50 MOI) were grown in low-glucose (1 g/L) Dulbecco’s modified Eagle medium with glutamine (DMEM, Gibco) supplemented with 10 % FBS (Hyclone), 1–2 % PS (Gibco) at 37 °C, and 200 μg/mL hygromycin (Corning), TM-1 cells were seeded in 6 well plates at equivalent cell counts/replicate. The following day, myocilin expression was induced by treating the cells with 2 μg/mL doxycycline (dox, Thermo-Scientific) in serum-free media. After 48 h, media was replaced with serum-free media containing 2 μg/mL dox to induce myocilin expression and 47 at the designated concentration for an additional 24 h.
(§3) Cells were lysed using lysis buffer (100 mM Tris-HCl pH 7.4, 3 mM EGTA, 5 mM MgCl2, 0.5 % Triton X 100) supplemented with 0.6 mM phenylmethylsulfonyl fluoride, and a 1:100 v/v protease inhibitor cocktail containing complete EDTA-free protease inhibitor (Roche) and 1 % (v/v) phosphatase inhibitor cocktails II and III (Sigma-Aldrich). Cells lysed by rocking in lysis buffer for ~2 h at 4 °C. Detergent-soluble and detergent insoluble fractions were separated by centrifugation. Protein concentration of the detergent-soluble fractions was determined by BCA assay (Pierce).
The detergent-soluble samples were prepared in equal protein concentration in 5X Laemmli buffer containing 5–10 % (v/v) β-mercaptoethanol. The samples were heated at 95 °C for 5 min and loaded on 12 % Tris-glycine gels. The gels were then transferred to methanol-activated PVDF membranes using the Trans-blot Turbo transfer system (Bio-Rad). […] Quantification of protein bands on Western blots was performed using ImageLab (Bio-Rad). Measurements of band density were normalized to actin loading control within each experiment, and the statistical significance was determined with one-way ANOVA with GraphPad Prism.

Hsp90α = Hsp90α (Homo sapiens, UniProt P07900); assay: Competitive binding fluorescence polarization (FP) assay, Hsp90α; details: FITC-GDA tracer, mean of triplicates ± SD, read-out: Apparent Kd Hsp90α
Description: The Fluorescence Polarization Assay (FP) was performed in 96-well flat-bottom plates (Santa Cruz Biotechnology) with a final volume of 100 μL per well. The assay buffer consisted of 20 mM HEPES, 50 mM KCl, 10.5 mM MgCl2, 20 mM Na2MoO4, 0.01 % NP-40 detergent (NP-40), and pH 7.3 with fresh 2 mM dithiothreitol (DTT) and 0.1 mg/mL bovine γ-globulin (BGG). Each well contained 10 nM of Hsp90α or Grp94 (Enzo Biochem Inc.) and 6 nM of FITC-GDA (fluorescent tracer, stock in DMSO). Compounds were tested in triplicate at final concentrations of 100 μM, 10 μM, 1 μM, 0.1 μM and 0.01 μM with each final concentration containing 1 % DMSO. Each plate included control wells containing: (i) buffer only (background polarization), (ii) protein plus tracer (maximum polarization control), and (iii) tracer only (minimum polarization control). Plates were incubated on a rocker at 4 °C for 24 h. Fluorescence polarization (mP units) was measured at 37 °C using excitation and emission wavelengths of 485 and 528 nm, respectively. Apparent Kd values were determined via calculations from the polarization data obtained at which the tracer was displaced by 50 % by the compounds of interest.
[I50] = concentration of free inhibitor at 50% inhibition, [L50] = concentration of free fluorescence labeled ligand molecule at 50% inhibition, [P0] = concentration of free protein at 0% inhibition, K = dissociation constant of the protein−ligand complex.^4

wild-type myocilin = assay: Cellular assay for wild-type myocilin in dox-inducible trabecular meshwork (TM-1) cells; assay type: cell-based, human; details: higher dose (30 μM), 24 h, Western blot
Description: as §2
as §3, with “Detergent-soluble and detergent insoluble fractions were separated by centrifugation.” left out
The detergent-soluble samples were prepared in equal protein concentration in 5X Laemmli buffer containing 5–10 % (v/v) β-mercaptoethanol. […] Quantification of protein bands on Western blots was performed using ImageLab (Bio-Rad). […]

Hsp70 = assay: Western blot of Hsp70 in MDA-MB-231 cells; assay type: cell-based; details: 24 h
Description: as §1

integrin α2 = assay: Western blot of integrin α2 in MDA-MB-231 cells; assay type: cell-based; details: 5 μM, 24 h
Description: as §1

Grp94 = assay: Competitive binding fluorescence polarization (FP) assay, Grp94; details: for Polarization Read 1 / Polarization Read 2 / Polarization Read 3: replicate wells, protein not given
Description: The Fluorescence Polarization Assay (FP) was performed in 96-well flat-bottom plates (Santa Cruz Biotechnology) with a final volume of 100 μL per well. […] Each well contained 10 nM of Hsp90α or Grp94 (Enzo Biochem Inc.) and 6 nM of FITC-GDA (fluorescent tracer, stock in DMSO). Compounds were tested in triplicate at final concentrations of 100 μM, 10 μM, 1 μM, 0.1 μM and 0.01 μM with each final concentration containing 1 % DMSO. Each plate included control wells containing: (i) buffer only (background polarization), (ii) protein plus tracer (maximum polarization control), and (iii) tracer only (minimum polarization control). Plates were incubated on a rocker at 4 °C for 24 h.

Kd (Hsp90α): 9.17 ± 0.86 µM | Polarization Read 1 (Grp94; 0.01 µM): 298 and 289 and 285 | Polarization Read 2 (Grp94; 0.01 µM): 278 and 288 and 270 | Polarization Read 3 (Grp94; 0.01 µM): 275 and 284 and 279 | Polarization Read 1 (Grp94; 0.1 µM): 247 and 250 and 234 | Polarization Read 2 (Grp94; 0.1 µM): 234 and 231 and 237 | Polarization Read 3 (Grp94; 0.1 µM): 220 (2×) and 210 | Polarization Read 1 (Grp94; 1 µM): 189 and 179 and 182 | Polarization Read 2 (Grp94; 1 µM): 178 and 177 and 180 | Polarization Read 3 (Grp94; 1 µM): 185 (2×) and 186 | Polarization Read 1 (Grp94; 10 µM): 170 and 191 and 174 | Polarization Read 2 (Grp94; 10 µM): 172 and 178 and 176 | Polarization Read 3 (Grp94; 10 µM): 169 and 185 and 177 | improvement in affinity compared to BnIm (Grp94; Grp94 affinity, relative to first generation BnIm): 15 fold | improvement in affinity compared to BnPh (Grp94; Grp94 affinity, relative to second generation BnPh): 8 fold | increase in affinity on extension of ethyl to propyl group (Grp94; Grp94 affinity, relative to the 2-ethyl analog): 10 fold | Fold selective for Grp94 (Grp94; selectivity over Hsp90α, n.s. = non-selective): 121 fold
Compound: CCCc1ccccc1Cc1cnnn1CCc1c(Cl)c(O)cc(O)c1C(=O)OC [Compound 47, methyl 3-chloro-4,6-dihydroxy-2-(2-(5-(2-propylbenzyl)-1H-1,2,3-triazol-1-yl)ethyl)benzoate]
effect on Akt (cytosolic Hsp90 client protein) (Akt): did not affect Akt | Y437H-mutant myocilin levels (Y437H myocilin; 3 μM, 24 h, TM-1 cells, Western blot): statistically significant reduction | reduction of levels of intracellular myocilin (Y437H myocilin; 30 μM, 24 h, TM-1 cells Y437H myocilin, Western blot): ≥ 50% | intracellular accumulation of mutant myocilin (Y437H myocilin; human trabecular meshwork cells, concentration not given): reduced the intracellular accumulation of mutant myocilin | wild-type myocilin expression (wild-type myocilin): statistically significant decrease | Hsp70 expression (Hsp70): does not induce Hsp70 expression | levels of Integrin α2 (integrin α2): induced the degradation of integrin α2; also recorded: reduced the levels of Integrin α2
